Source: patent US20070088021A1, “4-haloisoquinoline derivative and drug containing the same” (priority 2005, published 2007)
pIC50: −log10 of the molar value. Where a name gives a salt, the structure may show the parent alone.

Assays:
Rho kinase [1] = settings: order of magnitude stated in background; cited from earlier work
Rho kinase [2] = biological target: T1, Rho kinase; experiment: Rho-kinase assay (measurement of kinase inhibitory activity); type: biochemical; settings: method of Patent Document 1
T1 construct: IC50 for Rho kinase
Method: A Rho-kinase assay was performed according to the method described in Patent Document 1, and the 50% inhibitory concentration (hereinafter referred to as the “IC50 value”) for Rho kinase was calculated.

Row | pIC50 (Rho kinase [2]) | Compound | 50% inhibitory concentration (IC50) for Rho kinase (Rho kinase [1])
1 |  | Cc1cncc2cccc(S(=O)(=O)N3CCCNC[C@@H]3C)c12.Cl [(S)-(+)-hexahydro-2-methyl-1-(4-methyl-5-isoquinolinesulfonyl)-1H-1,4-diazepine hydrochloride] | 1/100
2 | 8.24 | C[C@H]1CNCCCN1S(=O)(=O)c1cccc2cncc(Br)c12 [Dihydrochloride of Compound (1) X = Br, 2-(S)-1-(4-bromoisoquinoline-5-sulfonyl)-2-methylhomopiperazine] | 
3 | 7.59 | CC1CNCCCN1S(=O)(=O)c1cccc2cncc(Cl)c12 (centres unmarked) [Dihydrochloride of Compound (1) X = Cl] | 
4 | 7.07 | C[C@H]1CNCCCN1S(=O)(=O)c1cccc2cncc(F)c12 [Dihydrochloride of Compound (1) X = F] | 

Row | Compound | pIC50 (Rho kinase [2]) | 50% inhibitory concentration (IC50) for Rho kinase (Rho kinase [1])
5 | Cc1cncc2cccc(S(=O)(=O)N3CCCNC[C@@H]3C)c12 [Reference Compound B, (S)-(+)-hexahydro-2-methyl-1-(4-methyl-5-isoquinolinesulfonyl)-1H-1,4-diazepine hydrochloride, reference compound] | 7.92 | 
